Columns and labels:
[1] = biological target: T1, BRD4 (BD1) (Homo sapiens, UniProt O60885); experiment: Binding assay BRD4/acetylated peptide H4 (TR-FRET protein-protein interaction assay)
T1 construct: with relatively long constructs also being possible, preferably amino acids 44-168; made in house; host or cells: E. coli
Method in brief: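 Displacement of biotin-Ac-H4 peptide from His6-tagged BRD4(BD1), final usually 10 nM, read as Eu-streptavidin to anti-His-XL665 TR-FRET (665/620 nm). Compounds tested at 11 doses up to 20 μM in duplicate, pH 7.5 HEPES, 22 °C then 4 °C incubation; IC50 by 4-parameter regression.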

[2] = test system: MOLM-13 cells; experiment: Cell proliferation assay (alamarBlue), MOLM-13; type: cell-based; details: Homo sapiens, 96 hours incubation, inhibition of cell proliferation
Protocol: In accordance with the invention, the capability of the substances to inhibit cell proliferation was determined Cell viability was determined using the alamarBlue® reagent (Invitrogen) in a Victor X3 Multilabel Reader (Perkin Elmer). The excitation wavelength was 530 nm and the emission wavelenth […].
The MOLM-13 cells (DSMZ, ACC 554) were sown at a concentration of 4000 cells/well in 100 μl growth medium (RPMI1640, 10% FCS) on 96-well microtitre plates.
After an overnight incubation at 37° C., the fluorescence values (CI values) were determined. The plates were then treated with various substance dilutions (1E-5 M, 3E-6 M, 1E-6M, 3E-7 M, 1E-7 M, 3E-8 M, 1E-8 M) and incubated at 37° C. for 72 (MV4-11-, LOX-IMVI cells), 96 (MOLM-13-, B16F10-, MDA-MB-431-, Caov-3 cells), 120 (MOLP-8-, KMS-12-PE cells) or 168 (LAPC-4 cells) hours. The fluorescence values (CO values) were then determined. For the data analysis, the CI values were subtracted from the CO values and the results were compared between cells treated with different dilutions of the substance or with buffer solution only. These were used to calculate the IC 50 values (substance concentration required for 50% inhibition of cell proliferation).

Row | SMILES | IC50 [1] [nM] | IC50 [2] [nM]
1 | CNC(=O)N1N=C(c2ccc(N3CCCOC3=O)cc2)c2cc(OC)c(OC)cc2CC1C (racemic) [Example 38, (±)-7,8-dimethoxy-N,4-dimethyl-1-[4-(2-oxo-1,3-oxazinan-3-yl)phenyl]-4,5-dihydro-3H-2,3-benzodiazepine-3-carboxamide] | 120 | 730
2 | CNC(=O)N1N=C(c2ccc(N3CCCC3=O)cc2)c2cc(OC)c(OC)cc2CC1C (racemic) [Example 39, (±)-7,8-dimethoxy-N,4-dimethyl-1-[4-(2-oxopyrrolidin-1-yl)phenyl]-4,5-dihydro-3H-2,3-benzodiazepine-3-carboxamide] | 80 | 700
3 | CNC(=O)N1N=C(c2ccc(N3CCOCC3=O)cc2)c2cc(OC)c(OC)cc2CC1C (racemic) [Example 40, (±)-7,8-dimethoxy-N,4-dimethyl-1-[4-(3-oxomorpholin-4-yl)phenyl]-4,5-dihydro-3H-2,3-benzodiazepine-3-carboxamide] | 280 | 1470
4 | CNC(=O)N1N=C(c2ccc(N3CC(C)OCC3=O)cc2)c2cc(OC)c(OC)cc2CC1C (racemic) [Example 41, (±)-7,8-dimethoxy-N,4-dimethyl-1-[4-(2-methyl-5-oxomorpholin-4-yl)phenyl]-4,5-dihydro-3H-2,3-benzodiazepine-3-carboxamide] | 260 | 1350
5 | CNC(=O)N1N=C(c2ccc(N3CCOC(C)C3=O)cc2)c2cc(OC)c(OC)cc2CC1C (racemic) [Example 42, (±)-7,8-dimethoxy-N,4-dimethyl-1-[4-(2-methyl-3-oxomorpholin-4-yl)phenyl]-4,5-dihydro-3H-2,3-benzodiazepine-3-carboxamide] | 200 | 1290
6 | CNC(=O)N1N=C(c2ccc(N3CCN(C)CC3=O)cc2)c2cc(OC)c(OC)cc2CC1C (racemic) [Example 43, (±)-7,8-dimethoxy-N,4-dimethyl-1-[4-(4-methyl-2-oxopiperazin-1-yl)phenyl]-4,5-dihydro-3H-2,3-benzodiazepine-3-carboxamide] | 300 | 840
7 | CNC(=O)N1N=C(c2ccc(N3CCNCC3=O)cc2)c2cc(OC)c(OC)cc2CC1C (racemic) [Example 44, (±)-7,8-Dimethoxy-N,4-dimethyl-1-[4-(2-oxopiperazin-1-yl)phenyl]-4,5-dihydro-3H-2,3-benzodiazepine-3-carboxamide] | 50 | 210
8 | CNC(=O)N1N=C(c2ccc(-c3cnc(C)n3C)cc2)c2cc(OC)c(OC)cc2CC1C (racemic) [Example 47, (±)-1-[4-(1,2-dimethyl-1H-imidazol-5-yl)phenyl]-7,8-dimethoxy-N-dimethyl-4,5-dihydro-3H-2,3-benzodiazepine-3-carboxamide] | 110 | 530
9 | CNC(=O)N1N=C(c2ccc(-c3ccc(O)nc3)cc2)c2cc(OC)c(OC)cc2CC1C (racemic) [Example 49, (±)-1-[4-(6-hydroxypyridin-3-yl)phenyl]-7,8-dimethoxy-N,4-dimethyl-4,5-dihydro-3H-2,3-benzodiazepine-3-carboxamide] | 40 | 420
10 | CNC(=O)N1N=C(c2ccc(-c3ccc(C(F)(F)F)nc3)cc2)c2cc(OC)c(OC)cc2CC1C (racemic) [Example 50, (±)-7,8-dimethoxy-N,4-dimethyl-1-{4-[6-(trifluoromethyl)pyridin-3-yl]phenyl}-4,5-dihydro-3H-2,3-benzodiazepine-3-carboxamide] | 150 | 560
11 | CNC(=O)N1N=C(c2cccc(-c3c(C)nn(C)c3C)c2)c2cc(OC)c(OC)cc2CC1C (racemic) [Example 53, (±)-7,8-dimethoxy-N,4-dimethyl-1-[3-(1,3,5-trimethyl-1H-pyrazol-4-yl)phenyl]-4,5-dihydro-3H-2,3-benzodiazepine-3-carboxamide] | 40 | 350
12 | CNC(=O)N1N=C(c2cccc(-c3cnn(C)c3)c2)c2cc(OC)c(OC)cc2CC1C (racemic) [Example 54, (±)-7,8-dimethoxy-N,4-dimethyl-1-[3-(1-methyl-1H-pyrazol-4-yl)phenyl]-4,5-dihydro-3H-2,3-benzodiazepine-3-carboxamide] | 50 | 440
13 | CNC(=O)N1N=C(c2cccc(-c3ccnn3C)c2)c2cc(OC)c(OC)cc2CC1C (racemic) [Example 55, (±)-7,8-dimethoxy-N,4-dimethyl-1-[3-(1-methyl-1H-pyrazol-5-yl)phenyl]-4,5-dihydro-3H-2,3-benzodiazepine-3-carboxamide] | 120 | 900
14 | CNC(=O)N1N=C(c2ccc(F)c(-c3c(C)nn(C)c3C)c2)c2cc(OC)c(OC)cc2CC1C (racemic) [Example 56, (±)-1-[4-fluoro-3-(1,3,5-trimethyl-1H-pyrazol-4-yl)phenyl]-7,8-dimethoxy-N,4-dimethyl-4,5-dihydro-3H-2,3-benzodiazepine-3-carboxamide] | 180 | 900
15 | CNC(=O)N1N=C(c2ccc(F)c(-c3cnn(C)c3)c2)c2cc(OC)c(OC)cc2CC1C (racemic) [Example 57, (±)-1-[4-fluoro-3-(1-methyl-1H-pyrazol-4-yl)phenyl]-7,8-dimethoxy-N,4-dimethyl-4,5-dihydro-3H-2,3-benzodiazepine-3-carboxamide] | 90 | 790
16 | CNC(=O)N1N=C(c2ccc(F)c(-c3c(C)noc3C)c2)c2cc(OC)c(OC)cc2CC1C (racemic) [Example 58, (±)-1-[3-(3,5-dimethylisoxazol-4-yl)-4-fluoroophenyl]-7,8-dimethoxy-N,4-dimethyl-4,5-dihydro-3H-2,3-benzodiazepine-3-carboxamide] | 250 | 990
17 | CNC(=O)N1N=C(c2ccc(-c3cccc([N+](=O)[O-])c3)cc2)c2cc(OC)c(OC)cc2CC1C (racemic) [Example 59, (±)-7,8-dimethoxy-N,4-dimethyl-1-(3′-nitrobiphenyl-4-yl)-4,5-dihydro-3H-2,3-benzodiazepine-3-carboxamide] | 70 | 620
18 | CNC(=O)N1N=C(c2ccc(-c3ccccc3)cc2)c2cc(OC)c(OC)cc2CC1C (racemic) [Example 60, (±)-1-(biphenyl-4-yl)-7,8-dimethoxy-N,4-dimethyl-4,5-dihydro-3H-2,3-benzodiazepine-3-carboxamide] | 80 | 480
19 | CNC(=O)N1N=C(c2ccc(-c3ccc(Cl)cc3Cl)cc2)c2cc(OC)c(OC)cc2CC1C (racemic) [Example 61, (±)-1-(2′,4′-dichlorobiphenyl-4-yl)-7,8-dimethoxy-N,4-dimethyl-4,5-dihydro-3H-2,3-benzodiazepine-3-carboxamide] | 570 | 2110
20 | CNC(=O)N1N=C(c2ccc(-c3ccc(F)cc3)cc2)c2cc(OC)c(OC)cc2CC1C (racemic) [Example 62, (±)-1-(4′-fluorobiphenyl-4-yl)-7,8-dimethoxy-N,4-dimethyl-4,5-dihydro-3H-2,3-benzodiazepine-3-carboxamide] | 60 | 650
21 | CNC(=O)N1N=C(c2ccc(-c3ccc(Cl)cc3)cc2)c2cc(OC)c(OC)cc2CC1C (racemic) [Example 63, (±)-1-(4′-chlorobiphenyl-4-yl)-7,8-dimethoxy-N,4-dimethyl-4,5-dihydro-3H-2,3-benzodiazepine-3-carboxamide] | 170 | 770
22 | CNC(=O)N1N=C(c2ccc(-c3ccc(C)cc3)cc2)c2cc(OC)c(OC)cc2CC1C (racemic) [Example 64, (±)-7,8-dimethoxy-N,4-dimethyl-1-(4′-methylbiphenyl-4-yl)-4,5-dihydro-3H-2,3-benzodiazepine-3-carboxamide] | 110 | 880
23 | CNC(=O)N1N=C(c2ccc(-c3ccc(OC)cc3)cc2)c2cc(OC)c(OC)cc2CC1C (racemic) [Example 65, (±)-7,8-dimethoxy-1-(4′-methoxybiphenyl-4-yl)-N,4-dimethyl-4,5-dihydro-3H-2,3-benzodiazepine-3-carboxamide] | 100 | 630
24 | CNC(=O)N1N=C(c2ccc(-c3ccc(OC)nc3)cc2)c2cc(OC)c(OC)cc2CC1C (racemic) [Example 66, (±)-7,8-dimethoxy-1-[4-(6-methoxypyridin-3-yl)phenyl]-N,4-dimethyl-4,5-dihydro-3H-2,3-benzodiazepine-3-carboxamide] | 70 | 630
25 | CNC(=O)N1N=C(c2ccc(-c3ccc([S+](C)[O-])cc3)cc2)c2cc(OC)c(OC)cc2CC1C (racemic) [Example 67, (±)-7,8-dimethoxy-N,4-dimethyl-1-[4′-(methylsulphinyl)biphenyl-4-yl]-4,5-dihydro-3H-2,3-benzodiazepine-3-carboxamide] | 40 | 470
